Laboratory results: ChEMBL document CHEMBL1201862, “PubChem BioAssay data set” (2004)
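Five compound concentrations were applied to cells in 96-well plates for 48 hours; endpoints were derived by simple linear interpolation of the resulting dose-response curve. GI50 marks 50% less growth.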 Activity calls are given as the source filed them. No stated cut-off is given here; in the data, active = GI50 up to about 1.1 µM and inactive = higher.

How the values were obtained:
Assay in all cases: NCI anticancer screen, dose series, 48 h
ACHN = tested on: ACHN
BT-549 = tested on: BT-549
CAKI-1 = tested on: CAKI-1
CCRF-CEM = tested on: CCRF-CEM
HOP-62 = tested on: HOP-62
KM12 = tested on: KM12
MDA-MB-435 = tested on: MDA-MB-435
Malme-3M = tested on: Malme-3M
NCI-H226 = tested on: NCI-H226
NCI-H23 = tested on: NCI-H23
NCI-H460 = tested on: NCI-H460
OVCAR-3 = tested on: OVCAR-3
OVCAR-5 = tested on: OVCAR-5
RXF 393 = tested on: RXF 393
SK-MEL-5 = tested on: SK-MEL-5
SNB-75 = tested on: SNB-75
SR = tested on: SR
SW-620 = tested on: SW-620
U-251 = tested on: U-251
UACC-62 = tested on: UACC-62

SMILES: COc1ccc2[nH]c3c(C)c4ccnc(NCCCN(C)CCCNC(=O)NCCCN(C)CCCNc5nccc6c(C)c7[nH]c8ccc(OC)cc8c7c(C)c56)c4c(C)c3c2c1
- GI50 (ACHN): 0.352 µM (active)
- GI50 (BT-549): 1.62 µM (inactive)
- GI50 (CAKI-1): 0.716 µM (active)
- GI50 (CCRF-CEM): 0.147 µM (active)
- GI50 (HOP-62): 0.419 µM (active)
- GI50 (KM12): 1.03 µM (active)
- GI50 (MDA-MB-435): 0.466 µM (active)
- GI50 (Malme-3M): 0.569 µM (active)
- GI50 (NCI-H226): 0.526 µM (active)
- GI50 (NCI-H23): 0.989 µM (active)
- GI50 (NCI-H460): 0.348 µM (active)
- GI50 (OVCAR-3): 1.29 µM (inactive)
- GI50 (OVCAR-5): 0.843 µM (active)
- GI50 (RXF 393): 0.369 µM (active)
- GI50 (SK-MEL-5): 0.774 µM (active)
- GI50 (SNB-75): 0.402 µM (active)
- GI50 (SR): 0.102 µM (active)
- GI50 (SW-620): 0.202 µM (active)
- GI50 (U-251): 0.205 µM (active)
- GI50 (UACC-62): 1.33 µM (inactive)

SMILES: O=C1c2c(Cl)c(Cl)c(Cl)c(Cl)c2C(=O)N1CCN(c1c(Cl)ssc1=O)c1c(Cl)ssc1=O
- GI50 (ACHN): 18.2 µM (inactive)
- GI50 (BT-549): 30.9 µM (inactive)
- GI50 (CAKI-1): 17.5 µM (inactive)
- GI50 (CCRF-CEM): 4.36 µM (inactive)
- GI50 (HOP-62): > 100 µM (inactive)
- GI50 (KM12): 54.8 µM (inactive)
- GI50 (MDA-MB-435): 19.8 µM (inactive)
- GI50 (Malme-3M): 25.2 µM (inactive)
- GI50 (NCI-H226): > 100 µM (inactive)
- GI50 (NCI-H23): 40.9 µM (inactive)
- GI50 (NCI-H460): 32.1 µM (inactive)
- GI50 (OVCAR-3): 18.7 µM (inactive)
- GI50 (OVCAR-5): 50.1 µM (inactive)
- GI50 (RXF 393): 16.4 µM (inactive)
- GI50 (SK-MEL-5): > 100 µM (inactive)
- GI50 (SNB-75): 31.6 µM (inactive)
- GI50 (SR): 20 µM (inactive)
- GI50 (SW-620): 22.5 µM (inactive)
- GI50 (U-251): 95.9 µM (inactive)
- GI50 (UACC-62): 19.3 µM (inactive)

SMILES: CC(C)(C)[Si](C)(C)OCC#C[C@@]1(O)CCCCC1CC(Sc1ccccc1)Sc1ccccc1 (stereo not given in full)
- GI50 (ACHN): 14.4 µM (inactive)
- GI50 (BT-549): 19 µM (inactive)
- GI50 (CAKI-1): 10.7 µM (inactive)
- GI50 (CCRF-CEM): 11.8 µM (inactive)
- GI50 (HOP-62): 16.9 µM (inactive)
- GI50 (KM12): 21.9 µM (inactive)
- GI50 (MDA-MB-435): 15.7 µM (inactive)
- GI50 (Malme-3M): 16.1 µM (inactive)
- GI50 (NCI-H226): 15.3 µM (inactive)
- GI50 (NCI-H23): 14.9 µM (inactive)
- GI50 (NCI-H460): 15.2 µM (inactive)
- GI50 (OVCAR-3): 12.9 µM (inactive)
- GI50 (OVCAR-5): 14.2 µM (inactive)
- GI50 (RXF 393): 12.5 µM (inactive)
- GI50 (SK-MEL-5): 15.7 µM (inactive)
- GI50 (SNB-75): 14.8 µM (inactive)
- GI50 (SR): 14.8 µM (inactive)
- GI50 (SW-620): 15.1 µM (inactive)
- GI50 (U-251): 13.3 µM (inactive)
- GI50 (UACC-62): 12.9 µM (inactive)
